Measurements published in ChEMBL document CHEMBL5620367, “Discovery of new tetrahydroisoquinolines as potent and selective LSD1 inhibitors for the treatment of MLL-rearranged leukemia” (Eur J Med Chem, 2023).
pIC50: −log10 of the molar value. Activity calls are given as the source filed them. No cut-off for these calls is given here.

Columns and labels:
MOLM-13 [1] = assay: Cytotoxicity against human MOLM-13 cells incubated for 7 days by CCK8 assay; settings: MOLM-13, 168 h
MOLM-13 [2] = assay: Induction of apoptosis in human MOLM-13 cells assessed as necrotic cells at 10 uM incubated for 3 days by Annexin V staining based flow cytometry (reference value: 1.23 %); type: functional; settings: time 3 day
MOLM-13 [3] = assay: Induction of apoptosis in human MOLM-13 cells assessed as early apoptotic cells at 100 uM incubated for 3 days by Annexin V staining based flow cytometry (reference value: 4.94 %); type: functional; settings: time 3 day
MV4-11 [4] = assay: Induction of apoptosis in human MV4-11 cells assessed as late apoptotic cells at 100 uM incubated for 3 days by Annexin V staining based flow cytometry (reference value: 7.29 %); type: functional; settings: time 3 day
MOLM-13 [5] = assay: Induction of cell differentiation in human MOLM-13 cells assessed as CD11b level at 30 uM incubated for 3 days by Annexin V staining based flow cytometry (reference value: 13.77 %); type: functional; settings: time 3 day
MOLM-13 [6] = assay: Induction of apoptosis in human MOLM-13 cells assessed as viable cells at 30 uM incubated for 3 days by Annexin V staining based flow cytometry (reference value: 90.54 %); type: functional; settings: MOLM-13, 72 h, time 3 day, read-out: Activity
MOLM-13 [7] = assay: Induction of cell differentiation in human MOLM-13 cells assessed as CD11b level at 100 uM incubated for 3 days by Annexin V staining based flow cytometry (reference value: 13.77 %); type: functional; settings: time 3 day
MV4-11 [8] = assay: Antitumor activity against human MV4-11 cells xenografted in NOD-SCID mouse assessed as increase in hemoglobin level at 50 to 78.7 mg/kg, sc measured after 33 days; type: functional, organism-based; settings: dose 50-78.7 mg/kg, time 33.0 day
MV4-11 [9] = assay: Cytotoxicity against human MV4-11 cells incubated for 7 days by CCK8 assay; settings: MV4-11, 168 h
MV4-11 [10] = assay: Antitumor activity against human MV4-11 cells xenografted in NOD-SCID mouse assessed as decrease in leukemic cells in blood at 50 mg/kg, sc measured after 33 days relative to control; type: functional; set-up: scale not given: the % may be the effect or the level left; settings: time 33 day
MV4-11 [11] = assay: Induction of apoptosis in human MV4-11 cells assessed as necrotic cells at 30 uM incubated for 3 days by Annexin V staining based flow cytometry (reference value: 2.45 %); type: functional; settings: time 3 day
MV4-11 [12] = assay: Induction of apoptosis in human MV4-11 cells assessed as early apoptotic cells at 10 uM incubated for 3 days by Annexin V staining based flow cytometry (reference value: […] %); type: functional; settings: time 3 day
[13] = Toxicity in NOD-SCID mouse xenografted with human MV4-11 cells assessed as animal survival at 50 to 78.7 mg/kg, sc measured after 33 days; type: organism-based; settings: in vivo, 792 h, dose 50-78.7 mg/kg, time 33 day
MV4-11 [14] = assay: Induction of apoptosis in human MV4-11 cells assessed as necrotic cells at 10 uM incubated for 3 days by Annexin V staining based flow cytometry (reference value: 2.45 %); type: functional; settings: time 3 day
MV4-11 [15] = assay: Induction of apoptosis in human MV4-11 cells assessed as late apoptotic cells at 30 uM incubated for 3 days by Annexin V staining based flow cytometry (reference value: 7.29 %); type: functional; settings: time 3 day
MV4-11 [16] = assay: Induction of apoptosis in human MV4-11 cells assessed as viable cells at 30 uM incubated for 3 days by Annexin V staining based flow cytometry (reference value: 89.63 %); type: functional; settings: MV4-11, 72 h, time 3 day, read-out: Activity
MOLM-13 [17] = assay: Induction of apoptosis in human MOLM-13 cells assessed as early apoptotic cells at 30 uM incubated for 3 days by Annexin V staining based flow cytometry (reference value: 4.94 %); type: functional; settings: time 3 day
MV4-11 [18] = assay: Induction of cell differentiation in human MV4-11 cells assessed as CD11b level at 30 uM incubated for 3 days by Annexin V staining based flow cytometry (reference value: 8.58 %); type: functional; settings: time 3 day
MV4-11 [19] = assay: Antitumor activity against human MV4-11 cells xenografted in NOD-SCID mouse assessed as decrease in leukemic cells in blood at 78.7 mg/kg, sc measured after 33 days relative to control; type: functional; set-up: scale not given: the % may be the effect or the level left; settings: time 33 day
[20] = molecular target: T1, MAO-A (amine oxidase [flavin-containing] A) (Homo sapiens, UniProt P21397); assay: Inhibition of N-terminal FLAG-tagged recombinant human MAO-A expressed in baculovirus infected Sf9 cells upto 10 uM preincubated for 15 mins followed by addition of luciferin derivative substrate measured after 1 hr by Luciferase Glo assay relative to control; settings: probe luciferin derivative substrate, time 75 min
T1 sequence (P21397 whole entry): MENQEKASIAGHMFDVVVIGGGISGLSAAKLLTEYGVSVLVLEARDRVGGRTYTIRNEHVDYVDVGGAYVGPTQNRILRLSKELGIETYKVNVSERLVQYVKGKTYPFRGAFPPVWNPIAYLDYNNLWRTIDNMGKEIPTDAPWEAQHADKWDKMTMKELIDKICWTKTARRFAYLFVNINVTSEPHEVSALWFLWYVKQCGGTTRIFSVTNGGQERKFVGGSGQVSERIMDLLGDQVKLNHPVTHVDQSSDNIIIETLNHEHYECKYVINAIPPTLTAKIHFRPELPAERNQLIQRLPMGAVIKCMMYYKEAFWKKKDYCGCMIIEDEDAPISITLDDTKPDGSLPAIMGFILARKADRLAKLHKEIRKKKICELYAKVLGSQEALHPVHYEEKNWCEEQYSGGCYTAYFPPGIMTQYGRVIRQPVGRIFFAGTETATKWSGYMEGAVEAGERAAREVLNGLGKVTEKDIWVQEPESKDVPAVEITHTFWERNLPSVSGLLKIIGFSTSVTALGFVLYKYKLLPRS

[21] = Toxicity in NOD-SCID mouse xenografted with human MV4-11 cells assessed as body weight reduction at 50 to 78.7 mg/kg, sc measured after 33 days; type: organism-based; set-up: scale not given: the % may be the effect or the level left; settings: in vivo, 792 h, dose 50-78.7 mg/kg, time 33 day
[22] = molecular target: T2, MAO-B (amine oxidase [flavin-containing] B) (Homo sapiens, UniProt P27338); assay: Inhibition of N-terminal FLAG-tagged recombinant human MAO-B expressed in baculovirus infected Sf9 cells upto 10 uM preincubated for 15 mins followed by addition of luciferin derivative substrate measured after 1 hr by Luciferase Glo assay relative to control; settings: probe luciferin derivative substrate, time 75 min
T2 sequence (P27338 whole entry): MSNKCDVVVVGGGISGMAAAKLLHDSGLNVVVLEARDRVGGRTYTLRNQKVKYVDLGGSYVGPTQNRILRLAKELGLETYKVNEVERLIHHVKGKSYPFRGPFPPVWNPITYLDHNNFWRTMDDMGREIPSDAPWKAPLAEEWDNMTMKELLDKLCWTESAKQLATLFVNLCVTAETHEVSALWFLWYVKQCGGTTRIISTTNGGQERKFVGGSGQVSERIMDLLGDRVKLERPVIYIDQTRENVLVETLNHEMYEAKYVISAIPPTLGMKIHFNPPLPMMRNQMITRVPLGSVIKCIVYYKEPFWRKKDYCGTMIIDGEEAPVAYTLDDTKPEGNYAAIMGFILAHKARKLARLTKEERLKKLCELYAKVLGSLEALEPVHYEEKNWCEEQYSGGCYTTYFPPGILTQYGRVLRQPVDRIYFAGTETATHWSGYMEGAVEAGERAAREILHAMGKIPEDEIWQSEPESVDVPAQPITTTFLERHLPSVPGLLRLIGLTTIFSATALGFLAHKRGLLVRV

MOLM-13 [23] = assay: Induction of apoptosis in human MOLM-13 cells assessed as necrotic cells at 100 uM incubated for 3 days by Annexin V staining based flow cytometry (reference value: 1.23 %); type: functional; settings: time 3 day
MV4-11 [24] = assay: Induction of apoptosis in human MV4-11 cells assessed as necrotic cells at 100 uM incubated for 3 days by Annexin V staining based flow cytometry (reference value: 2.45 %); type: functional; settings: time 3 day
MOLM-13 [25] = assay: Induction of apoptosis in human MOLM-13 cells assessed as late apoptotic cells at 10 uM incubated for 3 days by Annexin V staining based flow cytometry (reference value: 3.29 %); type: functional; settings: time 3 day
MOLM-13 [26] = assay: Induction of apoptosis in human MOLM-13 cells assessed as necrotic cells at 30 uM incubated for 3 days by Annexin V staining based flow cytometry (reference value: 1.23 %); type: functional; settings: time 3 day
MV4-11 [27] = assay: Antitumor activity against human MV4-11 cells xenografted in NOD-SCID mouse assessed as decrease in leukemic cells in spleen at 50 mg/kg, sc measured after 33 days relative to control; type: functional; set-up: scale not given: the % may be the effect or the level left; settings: time 33 day
MV4-11 [28] = assay: Induction of cell differentiation in human MV4-11 cells assessed as increase in CD11b level upto 400 uM incubated for 7 days […]; type: functional, cell-based; settings: time 7.0 day

O=C(O)C(F)(F)F.O=[N+]([O-])c1ccc(C2NCCc3cc(O)c(O)cc32)cc1 (stereo not drawn)
pIC50 (MOLM-13 [1]): 4.08 | Activity (MOLM-13 [2]): 6.32% | Activity (MOLM-13 [3]): 9.46% | Activity (MV4-11 [4]): 32.33% | Activity (MOLM-13 [5]): 90.6% | viability at 30 µM (MOLM-13 [6]): 61.5% | Activity (MOLM-13 [7]): 93.75% | Activity (MV4-11 [8]): Active | pIC50 (MV4-11 [9]): 4.38 | Activity (MV4-11 [10]): 35% | Activity (MV4-11 [11]): 6.36% | Activity (MV4-11 [12]): 7.06% | Activity [13]: Non-Toxic | Activity (MV4-11 [14]): 4.05% | Activity (MV4-11 [15]): 28.14% | viability at 30 µM (MV4-11 [16]): 57.8% | Activity (MOLM-13 [17]): 7.55% | Activity (MV4-11 [18]): 34.78% | Activity (MV4-11 [19]): 81% | inhibition at 1 h, up to 10 µM [20]: < 30% | Activity [21]: > 20% | inhibition at 1 h, up to 10 µM [22]: < 30% | Activity (MOLM-13 [23]): 16.41% | Activity (MV4-11 [24]): 15.9% | Activity (MOLM-13 [25]): 9.88% | Activity (MOLM-13 [26]): 14.95% | Activity (MV4-11 [27]): 32% | Activity (MV4-11 [28]): Active
